According to paper PMC4890880 (ACS infectious diseases, 2016):

Test system: Plasmodium berghei (Pb-Luc) exoerythrocytic-stage parasites
Assay: microbe, parasite or virus in culture
Details: read-out: Inhibition% @ 50 uM rep1

Row | SMILES | inhibition at 50 µM [%]
1 | O=C(Nc1ccc(N2CCN(Cc3ccccc3)CC2)cc1)c1cccs1 [MMV019670] | 102
2 | COc1cccc(C(=O)Nc2ccc(-c3nc4ccccc4[nH]3)cc2)c1 [MMV019762] | -94
3 | O=C(NC1CCN(Cc2ccccc2)CC1)c1cc(-c2cccnc2)nc2ccc(Cl)cc12 [MMV020490] | 95
4 | CC(=O)Nc1nnc(SCc2c(C)cc(C(C)(C)C)cc2C)s1 [MMV020700] | 103
5 | CCCCCC(=O)N1c2ccccc2N=C2CC(c3ccc(OC)c(OC)c3)CC(O)=C2C1c1ccc(C(F)(F)F)cc1 (stereo not shown) [MMV085583] | 97
6 | COc1cc(CNCCc2ccc(Cl)cc2)cc(OC)c1O [MMV128432] | 90
7 | COc1ccc(-c2nc(N3CCN(C(=O)C4CCCCC4)CC3)c3c4c(sc3n2)CCCC4)cc1 [MMV396594] | 98

Same assay, conditions: read-out: Inhibition% @ 50 uM rep2

Row | SMILES | inhibition at 50 µM [%]
8 | O=C(Nc1ccc(N2CCN(Cc3ccccc3)CC2)cc1)c1cccs1 [MMV019670] | 102
9 | COc1cccc(C(=O)Nc2ccc(-c3nc4ccccc4[nH]3)cc2)c1 [MMV019762] | -91
10 | O=C(NC1CCN(Cc2ccccc2)CC1)c1cc(-c2cccnc2)nc2ccc(Cl)cc12 [MMV020490] | 91
11 | CC(=O)Nc1nnc(SCc2c(C)cc(C(C)(C)C)cc2C)s1 [MMV020700] | 105
12 | CCCCCC(=O)N1c2ccccc2N=C2CC(c3ccc(OC)c(OC)c3)CC(O)=C2C1c1ccc(C(F)(F)F)cc1 (stereo not shown) [MMV085583] | 90
13 | COc1cc(CNCCc2ccc(Cl)cc2)cc(OC)c1O [MMV128432] | 93
14 | COc1ccc(-c2nc(N3CCN(C(=O)C4CCCCC4)CC3)c3c4c(sc3n2)CCCC4)cc1 [MMV396594] | 98

Same assay, conditions: read-out: PbLuc IC50, dose response, 1/3 dilutions, max conc. 10 or 50 uM, unit inferred

Row | SMILES | IC50 [µM]
15 | O=C(Nc1ccc(N2CCN(Cc3ccccc3)CC2)cc1)c1cccs1 [MMV019670] | 0.0944
16 | CC(=O)Nc1nnc(SCc2c(C)cc(C(C)(C)C)cc2C)s1 [MMV020700] | 2.29
17 | CCCCCC(=O)N1c2ccccc2N=C2CC(c3ccc(OC)c(OC)c3)CC(O)=C2C1c1ccc(C(F)(F)F)cc1 (stereo not shown) [MMV085583] | 7.1

Same assay, conditions: read-out: PbLuc IC50, dose response, unit inferred

Row | SMILES | IC50 [µM]
18 | COc1cccc(C(=O)Nc2ccc(-c3nc4ccccc4[nH]3)cc2)c1 [MMV019762] | > 10
19 | O=C(NC1CCN(Cc2ccccc2)CC1)c1cc(-c2cccnc2)nc2ccc(Cl)cc12 [MMV020490] | > 50
20 | COc1cc(CNCCc2ccc(Cl)cc2)cc(OC)c1O [MMV128432] | > 50
21 | COc1ccc(-c2nc(N3CCN(C(=O)C4CCCCC4)CC3)c3c4c(sc3n2)CCCC4)cc1 [MMV396594] | 39.9

Same assay, conditions: read-out: PbLuc max inhibition (%) @ 10 uM

Row | SMILES | inhibition at 10 µM [%]
22 | O=C(Nc1ccc(N2CCN(Cc3ccccc3)CC2)cc1)c1cccs1 [MMV019670] | 110
23 | COc1cccc(C(=O)Nc2ccc(-c3nc4ccccc4[nH]3)cc2)c1 [MMV019762] | 31

Same assay, conditions: read-out: PbLuc max inhibition (%) @ 50 uM

Row | SMILES | inhibition at 50 µM [%]
24 | O=C(NC1CCN(Cc2ccccc2)CC1)c1cc(-c2cccnc2)nc2ccc(Cl)cc12 [MMV020490] | 71
25 | CC(=O)Nc1nnc(SCc2c(C)cc(C(C)(C)C)cc2C)s1 [MMV020700] | 103
26 | CCCCCC(=O)N1c2ccccc2N=C2CC(c3ccc(OC)c(OC)c3)CC(O)=C2C1c1ccc(C(F)(F)F)cc1 (stereo not shown) [MMV085583] | 89
27 | COc1cc(CNCCc2ccc(Cl)cc2)cc(OC)c1O [MMV128432] | 73
28 | COc1ccc(-c2nc(N3CCN(C(=O)C4CCCCC4)CC3)c3c4c(sc3n2)CCCC4)cc1 [MMV396594] | 69

Target: QuantiLum Recombinant Luciferase (Photinus pyralis, UniProt P08659)
Assay: Bioluminescence quantification of compound luciferase inhibition
Details: not given

QuantiLum Recombinant Luciferase, sequence (P08659 whole entry): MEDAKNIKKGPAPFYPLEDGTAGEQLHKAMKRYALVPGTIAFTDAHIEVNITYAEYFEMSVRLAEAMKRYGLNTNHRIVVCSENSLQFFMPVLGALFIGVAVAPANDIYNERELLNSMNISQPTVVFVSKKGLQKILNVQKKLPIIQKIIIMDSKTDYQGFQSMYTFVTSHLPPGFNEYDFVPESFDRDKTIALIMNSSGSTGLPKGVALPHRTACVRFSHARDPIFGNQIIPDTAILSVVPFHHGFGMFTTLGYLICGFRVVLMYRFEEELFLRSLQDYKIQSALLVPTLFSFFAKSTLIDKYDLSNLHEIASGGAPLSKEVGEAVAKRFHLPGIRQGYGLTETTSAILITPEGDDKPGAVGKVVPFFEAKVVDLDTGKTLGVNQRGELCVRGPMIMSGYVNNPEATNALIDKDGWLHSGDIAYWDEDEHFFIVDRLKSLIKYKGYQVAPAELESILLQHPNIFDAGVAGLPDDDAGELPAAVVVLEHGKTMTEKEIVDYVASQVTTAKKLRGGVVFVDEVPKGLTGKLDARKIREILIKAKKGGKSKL

Row | SMILES | IC50 [µM]
29 | O=C(Nc1ccc(N2CCN(Cc3ccccc3)CC2)cc1)c1cccs1 [MMV019670] | > 20
30 | COc1cccc(C(=O)Nc2ccc(-c3nc4ccccc4[nH]3)cc2)c1 [MMV019762] | > 20
31 | O=C(NC1CCN(Cc2ccccc2)CC1)c1cc(-c2cccnc2)nc2ccc(Cl)cc12 [MMV020490] | > 50
32 | CC(=O)Nc1nnc(SCc2c(C)cc(C(C)(C)C)cc2C)s1 [MMV020700] | > 50
33 | CCCCCC(=O)N1c2ccccc2N=C2CC(c3ccc(OC)c(OC)c3)CC(O)=C2C1c1ccc(C(F)(F)F)cc1 (stereo not shown) [MMV085583] | > 50
34 | COc1cc(CNCCc2ccc(Cl)cc2)cc(OC)c1O [MMV128432] | > 50
35 | COc1ccc(-c2nc(N3CCN(C(=O)C4CCCCC4)CC3)c3c4c(sc3n2)CCCC4)cc1 [MMV396594] | > 50

Same assay, conditions: read-out: LucInhib max inhibition

Row | SMILES | Emax [%]
36 | O=C(Nc1ccc(N2CCN(Cc3ccccc3)CC2)cc1)c1cccs1 [MMV019670] | 14
37 | COc1cccc(C(=O)Nc2ccc(-c3nc4ccccc4[nH]3)cc2)c1 [MMV019762] | -3
38 | O=C(NC1CCN(Cc2ccccc2)CC1)c1cc(-c2cccnc2)nc2ccc(Cl)cc12 [MMV020490] | 23
39 | CC(=O)Nc1nnc(SCc2c(C)cc(C(C)(C)C)cc2C)s1 [MMV020700] | 34
40 | CCCCCC(=O)N1c2ccccc2N=C2CC(c3ccc(OC)c(OC)c3)CC(O)=C2C1c1ccc(C(F)(F)F)cc1 (stereo not shown) [MMV085583] | 34
41 | COc1cc(CNCCc2ccc(Cl)cc2)cc(OC)c1O [MMV128432] | 39
42 | COc1ccc(-c2nc(N3CCN(C(=O)C4CCCCC4)CC3)c3c4c(sc3n2)CCCC4)cc1 [MMV396594] | 44

Test system: HepG2-A16-CD81EGFP cells
Assay: cells
Details: Homo sapiens, HepG2, read-out: HepG2 Tox% @ 50 uM rep1

Row | SMILES | cytotoxicity at 50 µM [%]
43 | O=C(Nc1ccc(N2CCN(Cc3ccccc3)CC2)cc1)c1cccs1 [MMV019670] | -7.52
44 | COc1cccc(C(=O)Nc2ccc(-c3nc4ccccc4[nH]3)cc2)c1 [MMV019762] | -16
45 | O=C(NC1CCN(Cc2ccccc2)CC1)c1cc(-c2cccnc2)nc2ccc(Cl)cc12 [MMV020490] | 0.383
46 | CC(=O)Nc1nnc(SCc2c(C)cc(C(C)(C)C)cc2C)s1 [MMV020700] | 0.191
47 | CCCCCC(=O)N1c2ccccc2N=C2CC(c3ccc(OC)c(OC)c3)CC(O)=C2C1c1ccc(C(F)(F)F)cc1 (stereo not shown) [MMV085583] | 14
48 | COc1cc(CNCCc2ccc(Cl)cc2)cc(OC)c1O [MMV128432] | -13
49 | COc1ccc(-c2nc(N3CCN(C(=O)C4CCCCC4)CC3)c3c4c(sc3n2)CCCC4)cc1 [MMV396594] | 2.59

Same assay, conditions: Homo sapiens, HepG2, read-out: HepG2 Tox% @ 50 uM rep2

Row | SMILES | cytotoxicity at 50 µM [%]
50 | O=C(Nc1ccc(N2CCN(Cc3ccccc3)CC2)cc1)c1cccs1 [MMV019670] | -9
51 | O=C(NC1CCN(Cc2ccccc2)CC1)c1cc(-c2cccnc2)nc2ccc(Cl)cc12 [MMV020490] | -0.245
52 | CC(=O)Nc1nnc(SCc2c(C)cc(C(C)(C)C)cc2C)s1 [MMV020700] | 8
53 | CCCCCC(=O)N1c2ccccc2N=C2CC(c3ccc(OC)c(OC)c3)CC(O)=C2C1c1ccc(C(F)(F)F)cc1 (stereo not shown) [MMV085583] | 28

Same assay, conditions: Homo sapiens, HepG2, read-out: Tox IC50

Row | SMILES | IC50 [µM]
54 | O=C(Nc1ccc(N2CCN(Cc3ccccc3)CC2)cc1)c1cccs1 [MMV019670] | > 10
55 | COc1cccc(C(=O)Nc2ccc(-c3nc4ccccc4[nH]3)cc2)c1 [MMV019762] | > 10
56 | O=C(NC1CCN(Cc2ccccc2)CC1)c1cc(-c2cccnc2)nc2ccc(Cl)cc12 [MMV020490] | > 50
57 | CC(=O)Nc1nnc(SCc2c(C)cc(C(C)(C)C)cc2C)s1 [MMV020700] | > 50
58 | CCCCCC(=O)N1c2ccccc2N=C2CC(c3ccc(OC)c(OC)c3)CC(O)=C2C1c1ccc(C(F)(F)F)cc1 (stereo not shown) [MMV085583] | > 50
59 | COc1cc(CNCCc2ccc(Cl)cc2)cc(OC)c1O [MMV128432] | > 50
60 | COc1ccc(-c2nc(N3CCN(C(=O)C4CCCCC4)CC3)c3c4c(sc3n2)CCCC4)cc1 [MMV396594] | > 50

Same assay, conditions: Homo sapiens, HepG2, read-out: Tox max inhibition (%) @ 10 uM

Row | SMILES | inhibition at 10 µM [%]
61 | O=C(Nc1ccc(N2CCN(Cc3ccccc3)CC2)cc1)c1cccs1 [MMV019670] | 32
62 | COc1cccc(C(=O)Nc2ccc(-c3nc4ccccc4[nH]3)cc2)c1 [MMV019762] | 9

Same assay, conditions: Homo sapiens, HepG2, read-out: Tox max inhibition (%) @ 50 uM

Row | SMILES | inhibition at 50 µM [%]
63 | O=C(NC1CCN(Cc2ccccc2)CC1)c1cc(-c2cccnc2)nc2ccc(Cl)cc12 [MMV020490] | 12
64 | CC(=O)Nc1nnc(SCc2c(C)cc(C(C)(C)C)cc2C)s1 [MMV020700] | 10
65 | CCCCCC(=O)N1c2ccccc2N=C2CC(c3ccc(OC)c(OC)c3)CC(O)=C2C1c1ccc(C(F)(F)F)cc1 (stereo not shown) [MMV085583] | 4.23
66 | COc1cc(CNCCc2ccc(Cl)cc2)cc(OC)c1O [MMV128432] | 33
67 | COc1ccc(-c2nc(N3CCN(C(=O)C4CCCCC4)CC3)c3c4c(sc3n2)CCCC4)cc1 [MMV396594] | 37
